From ChEMBL document CHEMBL3616429, “Chemical structure and biological activity of a quorum sensing pheromone from Bacillus subtilis subsp. natto” (2015)
Calls of active or inactive are those of the source. The calls are words filed in the database; no cut-off is given here. *1 amine or outer side, *2 acyl side, *3 side chain or, on linkers, in order; H or OH if unused. Where a SMILES comes first, the peptide text is derived from it. [ ]: non-standard residue; d: D form. X1 = CC(C)=CCC/C(C)=C/CC/C(C)=C/C[C@]12C[C@@H](C(=O)[*:2])N([*:1])[C@@H]1Nc1ccccc12

Columns and labels:
Type in all cases: functional
Bacillus subtilis [1] = experiment: Induction of poly-gamma-glutamic acid production in Bacillus subtilis subsp. natto at 1000 nM incubated for 72 hrs at 37 degC by ultra-filtration method
Bacillus subtilis [2] = experiment: Induction of poly-gamma-glutamic acid production in Bacillus subtilis subsp. natto at >1 nM incubated for 72 hrs at 37 degC by ultra-filtration method
Bacillus subtilis [3] = experiment: Induction of poly-gamma-glutamic acid production in Bacillus subtilis subsp. natto at 10 nM incubated for 72 hrs at 37 degC by ultra-filtration method
Bacillus subtilis [4] = experiment: Induction of poly-gamma-glutamic acid production in Bacillus subtilis subsp. natto at 100 nM incubated for 72 hrs at 37 degC by ultra-filtration method

Row | Compound | Activity (Bacillus subtilis [1]) | Activity (Bacillus subtilis [2]) | Activity (Bacillus subtilis [3]) | fold change (FC) (Bacillus subtilis [4])
1 | H-KWPPIE-OH | inactive |  |  | 
2 | CC[C@H](C)[C@H](NC(=O)[C@@H]1CCCN1C(=O)[C@@H]1CCCN1C(=O)[C@@H]1C[C@]2(C/C=C(\C)CC/C=C(\C)CCC=C(C)C)c3ccccc3N[C@H]2N1C(=O)[C@@H](N)CCCCN)C(=O)N[C@@H](CCC(=O)O)C(=O)O (H-K[X1]PPIE-OH) |  | Active | Active | 2
